Test results published in patent US7601856B2 (Wyeth, priority 2006, dated 2009).

Experiments:
[1] = tested on: isolated rat bladder strips; assay: Inhibition of contractions of isolated rat bladder strips; details: 0.5 h, concentration eliciting 50% inhibition of pre-drug contractile activity, strips stimulated with additional 15 mM KCl, 30 minute challenge per concentration, read-out: IC50

## CC(C)CCC(=O)Nc1ccc2oc3c(c2c1)CCCC3 [Example 14, 4-METHYL-N-(6,7,8,9-TETRAHYDRO-DIBENZOFURAN-2-YL)-PENTANAMIDE]
other
  melting point: 145.5 to 146 °C
[1]
  IC50: 10 to 20 µM
